Measured values reported in patent US20260356860A1, “2-SUBSTITUTED 3,4A,5,7,8,8A-HEXAHYDRO-4H-THIOPYRANO[4,3-DJPYRIMIDIN-4-ONES FOR WOUND TREATMENT” (priority 2022, published 2026).

tested on: HEK293 SuperTOPFlash reporter cells, Wnt promoter; experiment: HEK CELL Wnt Assay (luciferase reporter); format: cell-based; conditions: @ >10,000 nM
Protocol: In order to determine the effect of the compounds of Formula (I) on Wnt inhibition, an in vitro assay using HEK293 SuperTOPFlash reporter cells, with the Wnt promoter driving a luciferase reporter gene, were utilized. 40,000 HEK293 SuperTOPFlash reporter cells were seeded, per well, in a 48 well plate for 24 hours, prior to administration of serial dilutions of the compound of Formula (I) to individual wells. Serial dilutions ranging from […] to 1 nM of the compound of Formula (I) were added with or without 50 ng/mL Wnt3a (Time Biosciences) and allowed to incubate with the reporter cells for 18 hours. Reporter cells with no treatment were used as negative control.

Row | Structure (SMILES) | HEK CELL Wnt inhibition
1 | N#Cc1ccc2c(c1)[nH]c(=O)n2[C@H]1C[C@H](c2nc3c(c(=O)[nH]2)CSCC3)C1 [Compound 2, 2-oxo-1-((1r,3r)-3-(4-oxo-3,5,7,8-tetrahydro-4H-thiopyrano[4,3-d]pyrimidin-2-yl)cyclobutyl)-2,3-dihydro-1H-benzo[d]imidazole-5-carbonitrile] | 60% inhibition @ >10,000 nM

same assay, conditions: serial dilutions, with or without 50 ng/mL Wnt3a; 18 h

Row | Structure (SMILES) | IC50 [nM]
2 | O=c1[nH]c(-c2ccc(-c3ccc(Br)cc3)cc2)nc2c1CSCC2 | 100
3 | O=c1[nH]c(/C=C/c2ccc(C(F)(F)F)c(B(O)O)c2)nc2c1CSCC2 [Compound 5, (E)-(5-(2-(4-oxo-3,5,7,8-tetrahydro-4H-thiopyrano[4,3-d]pyrimidin-2-yl)vinyl)-2-(trifluoromethyl)phenyl)boronic acid] | 5000

target: T1, Tankyrase 2 (TNKS2) (Homo sapiens, UniProt Q9H2K2); experiment: TNK2 Binding Assay (Tankyrase 2 ribosylation, chemiluminescence); format: biochemical; conditions: not given
T1 sequence (Q9H2K2 1-1166): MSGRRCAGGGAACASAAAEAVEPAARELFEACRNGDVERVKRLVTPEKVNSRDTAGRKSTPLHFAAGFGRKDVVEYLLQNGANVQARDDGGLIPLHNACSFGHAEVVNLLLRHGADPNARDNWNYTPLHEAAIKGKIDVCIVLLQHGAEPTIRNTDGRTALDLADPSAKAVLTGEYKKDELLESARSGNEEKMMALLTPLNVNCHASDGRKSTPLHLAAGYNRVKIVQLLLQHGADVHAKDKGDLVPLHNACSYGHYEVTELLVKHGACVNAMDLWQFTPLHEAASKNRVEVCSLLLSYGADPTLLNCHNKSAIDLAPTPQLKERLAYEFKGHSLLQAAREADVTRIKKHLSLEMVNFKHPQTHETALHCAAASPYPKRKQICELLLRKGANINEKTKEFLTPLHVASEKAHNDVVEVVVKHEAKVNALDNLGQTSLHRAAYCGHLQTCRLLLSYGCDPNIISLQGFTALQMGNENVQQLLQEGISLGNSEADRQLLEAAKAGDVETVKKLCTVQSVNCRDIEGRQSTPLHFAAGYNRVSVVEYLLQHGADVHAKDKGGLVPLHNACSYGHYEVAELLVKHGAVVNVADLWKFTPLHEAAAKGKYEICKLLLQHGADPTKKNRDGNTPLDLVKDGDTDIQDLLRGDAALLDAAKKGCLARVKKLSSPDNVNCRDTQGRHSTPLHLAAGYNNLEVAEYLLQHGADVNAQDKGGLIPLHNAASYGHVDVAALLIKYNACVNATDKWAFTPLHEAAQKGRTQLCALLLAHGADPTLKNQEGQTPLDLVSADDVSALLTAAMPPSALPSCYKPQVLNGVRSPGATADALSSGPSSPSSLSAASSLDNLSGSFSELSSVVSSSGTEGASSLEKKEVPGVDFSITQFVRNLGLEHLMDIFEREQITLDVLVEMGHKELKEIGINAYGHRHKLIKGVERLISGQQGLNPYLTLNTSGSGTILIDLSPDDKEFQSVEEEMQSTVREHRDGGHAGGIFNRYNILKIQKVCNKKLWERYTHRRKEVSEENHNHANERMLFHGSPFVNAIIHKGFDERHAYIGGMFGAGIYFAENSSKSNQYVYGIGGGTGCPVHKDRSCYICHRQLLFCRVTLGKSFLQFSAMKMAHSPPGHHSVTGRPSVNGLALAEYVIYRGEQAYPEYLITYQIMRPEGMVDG
Protocol: Tankyrase 2 assay (n=3) was performed with the following steps: step 1, coating a 96-well plate with 50 μL/well of histone solution; step 2, conducting ribosylation reaction; and step 3, detection.
Step 1: Coating a 96-Well Plate with 50 μL/Well of Histone Solution.
A 5× histone mixture was diluted 1:5 with PBS to make a 1× histone in PBS mixture. 50 μL of the histone mixture was added to each well and incubated at 4° C. overnight. The plate was washed three times using 200 μL PBST buffer (1×PBS containing 0.05% Tween*20 (polysorbate 20) per well. The plate was tapped onto a clean paper towel to remove the liquid. The wells were blocked by adding 200 μL of blocking buffer 3 to each well. The plate was incubated at room temperature for at least 90 minutes. The plate was washed three times with 200 μL PBST buffer. The plate was tapped onto a clean paper towel to remove the liquid.
A fresh solution of 10 mM DTT in water was prepared.
A master mix was prepared and delivered to each well (25 μL/well). Master mix delivered to each well: (2.5 μL of 10×PARP assay buffer (purchased from BPS Bioscience)+2.5 μL of PARP substrate mixture 2+17.5 μL of water+2.5 μL of 10 mM fresh DTT). The concentration of DTT in the master mix was 1 mM. 25 μL of master mix was added to each well.
1×PARP buffer with DTT was prepared. 10×PARP assay buffer was diluted to 1×PARP assay buffer containing DTT by adding 1 volume of 10×PARP assay buffer+1 volume of 10 mM DTT+8 volumes of water. The concentration of DTT in the 1×PARP assay buffer was 1 mM.
5 μL of a test inhibitor was added to each well labeled as “Test Inhibitor.” For the “Positive Control,” the PARP inhibitor, XAV939, was used. For the negative control, no inhibitor is added to the assay mix.
The Tankyrase 2 (TNKS2) enzyme on ice was thawed. The tube containing the enzyme was spun briefly to recover the full content of the tube. The amount of TNKS2 enzyme required for the assay was calculated and the enzyme was diluted to 0.5 ng/μL with 1×PARP assay buffer with DTT. 16) The final concentration of TNKS2 enzyme in the assay was 2 nM. The reaction was initiated by adding 10 μL of diluted TNKS2 enzyme to each well designated “Positive Control” and “Test Inhibitor.” To each well designated as “Blank,” 10 μL of 1×PARP assay buffer with DTT was added. The plate was incubated at room temperature for 1 hour. The plate was washed three times with 100 μL of PBST buffer and the plate was tapped onto a clean paper towel.
1) Streptavidin-HRP was diluted 1:50 in Blocking buffer (purchased from BPS Bioscience) 3.50 μL of diluted Streptavidin-RP was added to each well and incubated for 30 minutes at room temperature. The plate was washed three times with 100 μL of PBST buffer and tapped onto a clean paper towel. Just before use, 1 volume of ELISA ECL Substrate A and 1 volume of ELISA ECL Substrate B were mixed on ice; and 100 μL was added to each well. Immediately, the plate was read in a luminometer or microtiter-plate reader capable of reading chemiluminescence. The “Blank” value was subtracted from all other values.

Row | Structure (SMILES) | IC50 [nM]
4 | O=c1[nH]c(-c2ccc(B(O)O)c(O)c2)nc2c1CSCC2 [Compound 30, (2-hydroxy-4-(4-oxo-3,5,7,8-tetrahydro-4H-thiopyrano[4,3-d]pyrimidin-2-yl)phenyl)boronic acid] | 20
5 | COc1cc(-c2nc3c(c(=O)[nH]2)CSCC3)ccc1B(O)O [Compound 32, (2-methoxy-4-(4-oxo-3,5,7,8-tetrahydro-4H-thiopyrano[4,3-d]pyrimidin-2-yl)phenyl)boronic acid] | 111
6 | COC(=O)NCCOC(C)(C)c1ccc(-c2nc3c(c(=O)[nH]2)CSCC3)cc1O [Compound 33, methyl (2-((2-(2-hydroxy-4-(4-oxo-3,5,7,8-tetrahydro-4H-thiopyrano[4,3-d]pyrimidin-2-yl)phenyl)propan-2-yl)oxy)ethyl)carbamate] | 12
7 | COC(=O)NCCOC(C)(C)c1ccc(-c2nc3c(c(=O)[nH]2)CSCC3)cc1C [Compound 35, methyl (2-((2-(2-methyl-4-(4-oxo-3,5,7,8-tetrahydro-4H-thiopyrano[4,3-d]pyrimidin-2-yl)phenyl)propan-2-yl)oxy)ethyl)carbamate] | 13
8 | O=c1[nH]c(-c2ccc(B(O)O)cc2Cl)nc2c1CSCC2 [Compound 40, (3-chloro-4-(4-oxo-3,5,7,8-tetrahydro-4H-thiopyrano[4,3-d]pyrimidin-2-yl)phenyl)boronic acid] | 443
9 | O=c1[nH]c(N2CCN(c3c(F)cc(OCCO)cc3F)CC2)nc2c1CSCC2 [Compound 42, 2-(4-(2,6-difluoro-4-(2-hydroxyethoxy)phenyl)piperazin-1-yl)-3,5,7,8-tetrahydro-4H-thiopyrano[4,3-d]pyrimidin-4-one] | 9.7

Results, then the compound that gave them:

Row | IC50 [nM] | Structure (SMILES)
10 | 90 | CC(C)(OCCO)c1c(F)cc(-c2nc3c(c(=O)[nH]2)CSCC3)cc1F [Compound 15, 2-(3,5-difluoro-4-(2-(2-hydroxyethoxy)propan-2-yl)phenyl)-3,5,7,8-tetrahydro-4H-thiopyrano[4,3-d]pyrimidin-4-one]
11 | 4 | O=c1[nH]c(-c2ccc(-c3ccc(Br)nc3)c(F)c2)nc2c1CSCC2 [Compound 20, 2-(4-(6-bromopyridin-3-yl)-3-fluorophenyl)-3,5,7,8-tetrahydro-4H-thiopyrano[4,3-d]pyrimidin-4-one]
12 | 14 | O=c1[nH]c(-c2ccc(-c3ccnc(Br)c3)cc2)nc2c1CSCC2 [Compound 23, 2-(4-(2-bromopyridin-4-yl)phenyl)-3,5,7,8-tetrahydro-4H-thiopyrano[4,3-d]pyrimidin-4-one]
13 | 3530 | O=c1[nH]c(-c2ccc(B(O)O)cc2O)nc2c1CSCC2 [Compound 31, (3-hydroxy-4-(4-oxo-3,5,7,8-tetrahydro-4H-thiopyrano[4,3-d]pyrimidin-2-yl)phenyl)boronic acid]
14 | 164 | COC(=O)NCCOC(C)(C)c1ccc(-c2nc3c(c(=O)[nH]2)CSCC3)cc1OC [Compound 34, methyl (2-((2-(2-methoxy-4-(4-oxo-3,5,7,8-tetrahydro-4H-thiopyrano[4,3-d]pyrimidin-2-yl)phenyl)propan-2-yl)oxy)ethyl)carbamate]
15 | 29 | N#Cc1cc(-c2ccc(B(O)O)cc2)ccc1-c1nc2c(c(=O)[nH]1)CSCC2 [Compound 36, (3′-cyano-4′-(4-oxo-3,5,7,8-tetrahydro-4H-thiopyrano[4,3-d]pyrimidin-2-yl)-[1,1′-biphenyl]-4-yl)boronic acid]
16 | 16 | N#Cc1cc(B(O)O)ccc1-c1nc2c(c(=O)[nH]1)CSCC2 [Compound 37, (3-cyano-4-(4-oxo-3,5,7,8-tetrahydro-4H-thiopyrano[4,3-d]pyrimidin-2-yl)phenyl)boronic acid]
17 | 72 | COC(=O)NCCOC(C)(C)c1ccc(-c2nc3c(c(=O)[nH]2)CSCC3)c(C#N)c1 [Compound 38, methyl (2-((2-(3-cyano-4-(4-oxo-3,5,7,8-tetrahydro-4H-thiopyrano[4,3-d]pyrimidin-2-yl)phenyl)propan-2-yl)oxy)ethyl)carbamate]
18 | 650 | COC(=O)NCCOC(C)(C)c1ccc(-c2nc3c(c(=O)[nH]2)CSCC3)cc1C#N [Compound 39, methyl (2-((2-(2-cyano-4-(4-oxo-3,5,7,8-tetrahydro-4H-thiopyrano[4,3-d]pyrimidin-2-yl)phenyl)propan-2-yl)oxy)ethyl)carbamate]
19 | 8.7 | O=c1[nH]c(N2CCN(c3ccc(B(O)O)cc3)CC2)nc2c1CSCC2 [Compound 41, (4-(4-(4-oxo-3,5,7,8-tetrahydro-4H-thiopyrano[4,3-d]pyrimidin-2-yl)piperazin-1-yl)phenyl)boronic acid]
20 | 630 | CC1(C)OB(O)c2ccc(-c3nc4c(c(=O)[nH]3)CSCC4)cc21 [Compound 44, 2-(1-hydroxy-3,3-dimethyl-1,3-dihydrobenzo[c][1,2]oxaborol-5-yl)-3,5,7,8-tetrahydro-4H-thiopyrano[4,3-d]pyrimidin-4-one]
